Where two headings read alike, the source gives them in different places.
Assays:
[1] = target: T1, Recombinant STAT3 protein (STAT3 (G127-I722)) (Homo sapiens, UniProt P40763); assay: STAT3 Fluorescence Polarization (FP) Assay; assay type: binding; conditions: probe 5-FAM-GpYLPQTV-NH2 2 nM, 45-minute incubation
T1 construct: Recombinant STAT3 protein (STAT3 (G127-I722))
How it was run: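 In this competition FP format, STAT3 residues G127-I722 (25 nM) and 2 nM 5-FAM-GpYLPQTV-NH2 met test compounds for 45 min at room temperature. IC50 values result from fitting mP signal against log concentration by nonlinear regression.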

[2] = target: T2, Recombinant STAT6 protein (STAT6 (W123-T658)) (Homo sapiens, UniProt P42226); assay: STAT6 Fluorescence Polarization (FP) Assay; assay type: binding; conditions: 45-minute incubation
T2 construct: Recombinant STAT6 protein (STAT6 (W123-T658))
T2 sequence (P42226 123-658): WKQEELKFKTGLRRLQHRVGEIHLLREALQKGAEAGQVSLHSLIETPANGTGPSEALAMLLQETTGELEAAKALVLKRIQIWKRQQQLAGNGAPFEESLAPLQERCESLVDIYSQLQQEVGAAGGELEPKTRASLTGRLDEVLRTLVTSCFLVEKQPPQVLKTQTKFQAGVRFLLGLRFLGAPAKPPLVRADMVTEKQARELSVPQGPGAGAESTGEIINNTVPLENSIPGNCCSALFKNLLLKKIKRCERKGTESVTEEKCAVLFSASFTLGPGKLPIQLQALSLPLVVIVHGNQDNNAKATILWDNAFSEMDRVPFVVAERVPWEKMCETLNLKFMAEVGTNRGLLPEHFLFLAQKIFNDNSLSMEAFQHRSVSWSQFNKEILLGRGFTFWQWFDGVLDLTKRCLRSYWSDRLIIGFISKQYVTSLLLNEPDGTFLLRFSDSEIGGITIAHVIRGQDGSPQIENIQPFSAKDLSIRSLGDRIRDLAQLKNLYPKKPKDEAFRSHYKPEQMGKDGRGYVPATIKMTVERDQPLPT
How it was run: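 Probe displacement format: serially diluted compounds incubated 45 min at room temperature with 2 nM fluorescent phosphopeptide and 250 nM STAT6 (W123-T658) in pH 7.4 HEPES buffer, 1% DMSO final. Polarization signal plotted against log concentration, IC50 fitted by nonlinear regression.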

[3] = STAT3 (G127-I722) 25 nM, read-out: STAT3 (FP assay IC50 class)
[4] = STAT6 (W123-T658) 250 nM, probe 5-FAM-Ap[…]-NH2 2 nM, read-out: STAT6 (FP assay IC50 class)
[5] = STAT6 (W123-T658) 250 nM, probe 5-FAM-ApYKPFQDLI-NH2 2 nM, read-out: STAT6 (FP assay IC50 class)
[6] = STAT3 25 nM, read-out: STAT3 (FP assay IC50)
[7] = STAT6 250 nM, probe 5-FAM-Ap[…]-NH2 2 nM, read-out: STAT6 (FP assay IC50)

T1 sequence (P40763 127-722): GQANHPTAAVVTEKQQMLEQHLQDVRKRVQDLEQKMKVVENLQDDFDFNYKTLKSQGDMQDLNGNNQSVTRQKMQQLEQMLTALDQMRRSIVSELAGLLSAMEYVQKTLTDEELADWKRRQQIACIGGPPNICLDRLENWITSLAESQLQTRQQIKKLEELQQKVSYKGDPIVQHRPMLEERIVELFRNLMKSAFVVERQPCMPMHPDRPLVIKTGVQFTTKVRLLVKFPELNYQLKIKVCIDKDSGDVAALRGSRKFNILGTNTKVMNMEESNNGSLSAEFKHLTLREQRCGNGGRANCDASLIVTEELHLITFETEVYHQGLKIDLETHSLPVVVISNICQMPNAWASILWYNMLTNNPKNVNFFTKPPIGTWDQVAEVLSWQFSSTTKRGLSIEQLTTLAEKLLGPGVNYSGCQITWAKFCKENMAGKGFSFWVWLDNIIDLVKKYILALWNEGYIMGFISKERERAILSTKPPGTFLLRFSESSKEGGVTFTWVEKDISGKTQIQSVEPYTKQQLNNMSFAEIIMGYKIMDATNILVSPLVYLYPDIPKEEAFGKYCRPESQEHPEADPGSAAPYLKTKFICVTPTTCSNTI

SMILES | IC50 [1, 3] | IC50 [2, 4] | IC50 [2, 5] | IC50 [1, 6] | IC50 [2, 7]
N#C[C@H]1[C@H](c2ccccc2)CN(C(=O)[C@@H]2CC[C@@H]3CCCC[C@H](NC(=O)c4cc5cc([C@H](F)P(=O)(O)O)ccc5s4)C(=O)N32)C12CC2 (single isomer, unassigned) [Compound 924] | 1 to 10 µM | ≤ 0.3 µM |  |  | 
N#C[C@@H]1[C@@H](c2ccccc2)CN(C(=O)[C@@H]2CC[C@@H]3C[C@@H](N4CCC4)CC[C@H](NC(=O)c4cc5cc([C@H](F)P(=O)(O)O)ccc5s4)C(=O)N32)C12CC2 (single isomer, unassigned) [Compound 934] | 1 to 10 µM | ≤ 0.3 µM |  |  | 
N#C[C@@H]1[C@@H](c2ccccc2)CN(C(=O)[C@@H]2CC[C@@H]3C[C@@H](N4CCC4)CC[C@H](NC(=O)c4cc5cc([C@@H](F)P(=O)(O)O)ccc5s4)C(=O)N32)C12CC2 (single isomer, unassigned) [Compound 935] | 1 to 10 µM | ≤ 0.3 µM |  |  | 
N#C[C@H]1[C@H](c2ccccc2)CN(C(=O)[C@@H]2CC[C@@H]3C[C@@H](N4CCC4)CC[C@H](NC(=O)c4cc5cc([C@H](F)P(=O)(O)O)ccc5s4)C(=O)N32)C12CC2 (single isomer, unassigned) [Compound 936] | 1 to 10 µM | ≤ 0.3 µM |  |  | 
N#C[C@H]1[C@H](c2ccccc2)CN(C(=O)[C@@H]2CC[C@@H]3C[C@@H](N4CCC4)CC[C@H](NC(=O)c4cc5cc([C@@H](F)P(=O)(O)O)ccc5s4)C(=O)N32)C12CC2 (single isomer, unassigned) [Compound 937] | 1 to 10 µM | ≤ 0.3 µM |  |  | 
C[C@H]1C[C@H]2CC[C@@H](C(=O)N3CC[C@@H](c4ccccc4)C3)N2C(=O)[C@@H](NC(=O)c2cc3cc(C(F)(F)P(=O)(O)O)ccc3s2)CC1O (stereo in doubt) [Compound 101, (difluoro(2-(((3S,6S,8S,9S, 10aR)-8-hydroxy-9-methyl-5-oxo-3-((S)-3-phenylpyrrolidine-1-carbonyl)decahydropyrrolo [1,2-a]azocin-6-yl)carbamoyl)benzo[b]thiophen-5-yl)methyl) phosphonic acid] |  |  |  | 0.1 to 1 µM | 0.3 to 3 µM
N#CC1C(c2ccccc2)CN(C(=O)[C@@H]2CC[C@@H]3CCC[C@H](NC(=O)c4cc5cc(C(F)(F)P(=O)(O)O)ccc5s4)C(=O)N32)C12CC2 (stereo in doubt) [Compound 865, ((2-(((3S,6S,9aS)-3-((6S,7R)-7-cyano-6-phenyl-4-azaspiro[2.4]heptane-4-carbonyl)-5-oxooctahydro-1H-pyrrolo[1,2-a]azepin-6-yl)carbamoyl)benzo [b]thiophen-5-yl)difluoromethyl) phosphonic acid] | 1 to 10 µM | ≤ 0.3 µM |  |  | 
O=C(N[C@H]1CCCC[C@H]2CC[C@@H](C(=O)N3CC(c4cccnc4)CC34CC4)N2C1=O)c1cc2cc([C@@H](F)P(=O)(O)O)ccc2s1 (stereo in doubt) [Compound 910, ((S)-fluoro(2-(((3S,6S,10aS)-5-oxo-3-((R)-6-(pyridin-3-yl)-4-azaspiro[2.4]heptane-4-carbonyl)decahydropyrrolo[1,2-a]azocin-6-yl)carbamoyl)benzo [b]thiophen-5-yl)methyl) phosphonic acid] | 1 to 10 µM |  | ≤ 0.3 µM |  | 
N#CC1C(c2ccccc2)CN(C(=O)[C@@H]2CC[C@@H]3CCC[C@H](NC(=O)c4cc5cc([C@@H](F)P(=O)(O)O)ccc5s4)C(=O)N32)C12CC2 (stereo in doubt) [Compound 921, ((S)-(2-(((3S,6S,9aS)-3-((6R,7S)-7-cyano-6-phenyl-4-azaspiro[2.4]heptane-4-carbonyl)-5-oxooctahydro-1H-pyrrolo[1,2-a]azepin-6-yl)carbamoyl)benzo [b]thiophen-5-yl)fluoromethyl) phosphonic acid] | 1 to 10 µM |  | ≤ 0.3 µM |  | 
CN(C(=O)[C@@H]1CC[C@@H]2CCCC[C@H](NC(=O)c3cc4cc(C(F)(F)P(=O)(O)O)ccc4[nH]3)C(=O)N21)c1ccccc1 [Compound 1, (difluoro(2-(((3S,6S,10aS)-3-(methyl(phenyl)carbamoyl)-5-oxodecahydropyrrolo[1,2-a]azocin-6-yl)carbamoyl)-1H-indol-5-yl)methyl)phosphonic acid] |  |  |  | > 10 µM | 0.3 to 3 µM
O=C(N[C@H]1CC[C@@H](O)C[C@H]2CC[C@@H](C(=O)N3CC(C(=O)N4CCOCC4)C3)N2C1=O)c1cc2cc(C(F)(F)P(=O)(O)O)ccc2s1 [Compound 2, (difluoro(2-(((3S,6S,9R,10aR)-9-hydroxy-3-(3-(morpholine-4-carbonyl)azetidine-1-carbonyl)-5-oxodecahydropyrrolo [1,2-a]azocin-6-yl)carbamoyl)benzo[b]thiophen-5-yl)methyl) phosphonic acid] |  |  |  | 0.1 to 1 µM | 3 to 30 µM

The remaining lines, values ahead:

IC50 [1, 3] | IC50 [2, 4] | IC50 [2, 5] | IC50 [1, 6] | IC50 [2, 7] | SMILES
1 to 10 µM | ≤ 0.3 µM |  |  |  | O=C(N[C@H]1CCCC[C@H]2CC[C@@H](C(=O)N3C[C@@H](c4ccccc4)CC34CC4)N2C1=O)c1cc2cc(C(F)(F)P(=O)(O)O)ccc2s1 (single isomer, unassigned) [Compound 889]
1 to 10 µM |  | ≤ 0.3 µM |  |  | O=C(N[C@H]1CCCC[C@H]2CC[C@@H](C(=O)N3C[C@@H](c4ccccc4)CC34CC4)N2C1=O)c1cc2cc(C(F)(F)P(=O)(O)O)ccc2s1 (single isomer, unassigned) [Compound 890]
1 to 10 µM | ≤ 0.3 µM |  |  |  | N#C[C@@H]1[C@@H](c2ccccc2)CN(C(=O)[C@@H]2CC[C@@H]3CCCC[C@H](NC(=O)c4ccc5ccc(C(F)P(=O)(O)O)cc5c4)C(=O)N32)C12CC2 (single isomer, unassigned) [Compound 894]
1 to 10 µM | 3 to 30 µM |  |  |  | CC(c1ccc2ccc(C(=O)N[C@H]3CCCC[C@H]4CC[C@@H](C(=O)N5C[C@@H](c6ccccc6)CC56CC6)N4C3=O)cc2c1)P(=O)(O)O (single isomer, unassigned) [Compound 897]
1 to 10 µM | ≤ 0.3 µM |  |  |  | O=C(N[C@H]1CCCC[C@H]2CC[C@@H](C(=O)N3C[C@@H](c4cccnc4)CC34CC4)N2C1=O)c1cc2cc([C@H](F)P(=O)(O)O)ccc2s1 (single isomer, unassigned) [Compound 908]
1 to 10 µM | ≤ 0.3 µM |  |  |  | O=C(N[C@H]1CCCC[C@H]2CC[C@@H](C(=O)N3C[C@H](c4cccnc4)CC34CC4)N2C1=O)c1cc2cc([C@@H](F)P(=O)(O)O)ccc2s1 (single isomer, unassigned) [Compound 909]
1 to 10 µM | ≤ 0.3 µM |  |  |  | O=C(N[C@H]1CCCC[C@H]2CC[C@@H](C(=O)N3C[C@H](c4cccnc4)CC34CC4)N2C1=O)c1cc2cc([C@H](F)P(=O)(O)O)ccc2s1 (single isomer, unassigned) [Compound 911]
1 to 10 µM | ≤ 0.3 µM |  |  |  | N#C[C@H]1[C@H](c2ccccc2)CN(C(=O)[C@@H]2CC[C@@H]3CCC[C@H](NC(=O)c4cc5cc([C@H](F)P(=O)(O)O)ccc5s4)C(=O)N32)C12CC2 (single isomer, unassigned) [Compound 916]
1 to 10 µM | ≤ 0.3 µM |  |  |  | O=C(N[C@H]1CCC[C@H]2CC[C@@H](C(=O)N3C[C@@H](c4cccnc4)CC34CC4)N2C1=O)c1cc2cc([C@@H](F)P(=O)(O)O)ccc2s1 (single isomer, unassigned) [Compound 917]
1 to 10 µM | ≤ 0.3 µM |  |  |  | N#C[C@@H]1[C@@H](c2ccccc2)CN(C(=O)[C@@H]2CC[C@@H]3CCC[C@H](NC(=O)c4cc5cc([C@H](F)P(=O)(O)O)ccc5s4)C(=O)N32)C12CC2 (single isomer, unassigned) [Compound 919]
1 to 10 µM | ≤ 0.3 µM |  |  |  | N#C[C@@H]1[C@@H](c2ccccc2)CN(C(=O)[C@@H]2CC[C@@H]3CCC[C@H](NC(=O)c4cc5cc([C@@H](F)P(=O)(O)O)ccc5s4)C(=O)N32)C12CC2 (single isomer, unassigned) [Compound 920]
1 to 10 µM | ≤ 0.3 µM |  |  |  | N#C[C@@H]1[C@@H](c2ccccc2)CN(C(=O)[C@@H]2CC[C@@H]3CCCC[C@H](NC(=O)c4cc5cc([C@@H](F)P(=O)(O)O)ccc5s4)C(=O)N32)C12CC2 (single isomer, unassigned) [Compound 923]
